Drawing on ChEMBL document CHEMBL1144308, “Novel CDK inhibition profiles of structurally varied 1-aza-9-oxafluorenes” (Bioorg Med Chem Lett, 2005), this text covers IC50 for 6 compounds.

What all share (assay type): protein-complex assay
Assay [1] concerns the target T1, Cyclin-dependent kinase 4/cyclin D1 (Homo sapiens, UniProt P11802). Kind of assay: Inhibitory concentration tested against Cyclin dependant kinase 4-cyclinD1.
In assay [2] the target is T2, Cyclin-dependent kinase 2/cyclin E1 (Homo sapiens, UniProt P24941). Description: Inhibitory concentration tested against Cyclin dependant kinase 2-cyclinE.
The target in assay [3] is Cyclin-dependent kinase 5/CDK5 activator 1 (Homo sapiens, UniProt Q00535+Q15078). Description: Inhibitory concentration tested against Cyclin-dependent kinase 5; NA: not active.
Chain of Cyclin-dependent kinase 5/CDK5 activator 1 (Homo sapiens, UniProt Q00535+Q15078) (Q00535 whole entry): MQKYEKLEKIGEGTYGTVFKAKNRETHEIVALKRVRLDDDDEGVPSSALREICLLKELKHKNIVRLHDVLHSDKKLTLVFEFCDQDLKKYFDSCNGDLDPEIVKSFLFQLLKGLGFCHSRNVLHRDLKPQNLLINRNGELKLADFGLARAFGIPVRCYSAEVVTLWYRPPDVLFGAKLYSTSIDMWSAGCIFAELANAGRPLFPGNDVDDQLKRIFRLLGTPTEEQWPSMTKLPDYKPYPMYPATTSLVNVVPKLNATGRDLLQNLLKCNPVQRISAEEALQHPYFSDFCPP
Chain of Cyclin-dependent kinase 5/CDK5 activator 1 (Homo sapiens, UniProt Q00535+Q15078) (Q15078 whole entry): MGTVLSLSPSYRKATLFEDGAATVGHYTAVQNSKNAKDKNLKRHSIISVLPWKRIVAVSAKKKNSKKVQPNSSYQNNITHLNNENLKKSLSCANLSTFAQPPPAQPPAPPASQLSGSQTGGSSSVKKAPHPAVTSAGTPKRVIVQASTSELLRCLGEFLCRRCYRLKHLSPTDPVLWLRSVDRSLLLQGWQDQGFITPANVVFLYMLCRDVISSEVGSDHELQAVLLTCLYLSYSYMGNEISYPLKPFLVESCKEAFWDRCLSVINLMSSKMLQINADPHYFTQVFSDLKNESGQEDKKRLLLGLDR
Assay [4] deals with Cyclin-dependent kinase 1/cyclin B1 (Homo sapiens, UniProt P06493). Description: Inhibitory concentration tested against Cyclin dependant kinase 1-cyclinB.
Chain of Cyclin-dependent kinase 1/cyclin B1 (P06493 whole entry): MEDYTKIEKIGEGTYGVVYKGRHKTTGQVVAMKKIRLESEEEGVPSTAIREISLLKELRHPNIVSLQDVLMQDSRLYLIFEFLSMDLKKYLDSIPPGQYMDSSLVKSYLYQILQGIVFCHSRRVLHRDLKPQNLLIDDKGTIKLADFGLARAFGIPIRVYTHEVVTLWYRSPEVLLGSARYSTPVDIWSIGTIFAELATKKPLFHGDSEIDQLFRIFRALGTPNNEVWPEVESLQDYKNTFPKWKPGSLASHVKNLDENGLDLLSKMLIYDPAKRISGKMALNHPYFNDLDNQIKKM
Chain of Cyclin-dependent kinase 1/cyclin B1 (P14635 whole entry, further chain): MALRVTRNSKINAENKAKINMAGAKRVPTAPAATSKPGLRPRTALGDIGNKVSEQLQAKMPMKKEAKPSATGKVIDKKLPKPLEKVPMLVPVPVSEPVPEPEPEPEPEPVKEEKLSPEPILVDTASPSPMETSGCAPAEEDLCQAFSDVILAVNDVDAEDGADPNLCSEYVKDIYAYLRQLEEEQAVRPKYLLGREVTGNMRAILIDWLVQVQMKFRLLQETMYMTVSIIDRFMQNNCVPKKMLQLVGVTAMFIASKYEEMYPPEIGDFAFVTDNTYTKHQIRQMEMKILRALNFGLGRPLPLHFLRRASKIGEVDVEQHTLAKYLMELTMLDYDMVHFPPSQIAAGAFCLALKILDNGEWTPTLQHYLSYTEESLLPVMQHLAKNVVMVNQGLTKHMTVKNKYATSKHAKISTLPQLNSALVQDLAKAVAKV
For assay [5], the target named is T1, Cyclin-dependent kinase 4/cyclin D1. Description: Inhibitory concentration tested against Cyclin dependant kinase 4-cyclinD1; ND: not determined.
In assay [6] the target is T2, Cyclin-dependent kinase 2/cyclin E1. Kind of assay: Inhibitory concentration tested against Cyclin dependant kinase 2-cyclinE; ND: not determined.
In assay [7] the target is Cyclin-dependent kinase 5/CDK5 activator 1 (Homo sapiens, UniProt Q00535). Kind of assay: Inhibitory concentration tested against Cyclin-dependent kinase 5.
Chain of Cyclin-dependent kinase 5/CDK5 activator 1 (Homo sapiens, UniProt Q00535) (Q00535 whole entry): as the sequence (Q00535 whole entry) above
Chain of Cyclin-dependent kinase 5/CDK5 activator 1 (Homo sapiens, UniProt Q00535) (Q15078 whole entry, further chain): as the sequence (Q15078 whole entry) above

T1 sequence (P11802 whole entry): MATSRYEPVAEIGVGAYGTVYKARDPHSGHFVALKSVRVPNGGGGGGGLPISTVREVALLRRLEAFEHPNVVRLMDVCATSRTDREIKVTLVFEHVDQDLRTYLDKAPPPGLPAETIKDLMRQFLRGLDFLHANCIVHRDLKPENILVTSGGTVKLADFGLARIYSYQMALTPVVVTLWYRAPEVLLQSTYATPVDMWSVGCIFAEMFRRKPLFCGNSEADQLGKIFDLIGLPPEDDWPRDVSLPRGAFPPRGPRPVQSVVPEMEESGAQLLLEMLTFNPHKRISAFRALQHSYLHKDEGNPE
T1 sequence (P24385 whole entry, further chain): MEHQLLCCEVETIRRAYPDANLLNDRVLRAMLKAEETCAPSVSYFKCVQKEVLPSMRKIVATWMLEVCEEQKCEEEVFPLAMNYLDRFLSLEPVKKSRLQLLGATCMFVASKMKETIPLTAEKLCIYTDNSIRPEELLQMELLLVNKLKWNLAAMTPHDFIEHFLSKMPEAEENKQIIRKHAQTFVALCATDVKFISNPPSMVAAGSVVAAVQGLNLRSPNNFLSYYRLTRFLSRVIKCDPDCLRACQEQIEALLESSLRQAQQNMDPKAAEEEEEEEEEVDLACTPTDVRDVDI

What is called IC50 is the concentration at which inhibition is half-maximal. Read a high IC50 as weaker potency in that assay. With `Oc1ccc2oc3ncc(Br)c(-c4ccccc4)c3c2c1`, the IC50 in assay [1] is 28.7 µM; in assay [2] it was 3.2 µM; in assay [3] it was “Not Active”; in assay [4] it was 70.7 µM.

Regarding `Oc1ccc2oc3ncc(Cl)c(-c4ccccc4)c3c2c1`, the IC50 in assay [1] is over 100 µM; in assay [2], over 100 µM; in assay [3], “Not Active”; in assay [4], over 100 µM.

On to `CC(=O)c1cnc2oc3ccc(O)cc3c2c1-c1ccccc1`, for which the IC50 is over 100 µM in assay [5], over 100 µM in assay [6] and 4.2 µM in assay [4].

Regarding `Cc1cnc2oc3ccc(O)cc3c2c1-c1ccccc1`, the IC50 in assay [1] is over 100 µM; in assay [2], over 100 µM; in assay [3], “Not Active”; in assay [4], over 100 µM.

With `CCOc1cnc2oc3ccc(O)cc3c2c1-c1ccccc1`, the IC50 is 5.9 µM in assay [7], over 100 µM in assay [1], over 100 µM in assay [2] and over 100 µM in assay [4].

Consider `COc1cnc2oc3ccc(O)cc3c2c1-c1ccccc1`, for which the IC50 in assay [7] is 6.3 µM; in assay [1] it was over 100 µM; in assay [2], 80 µM; in assay [4], 64.3 µM.
